Key:
immune system organs = assay: Organ weight and total cell recovery; type: in vivo, C57B16 mice; set-up: Spleen Cell Number / Thymus Cell Number / LN Cell Number / BM Cell Number: scale not given here; Spleen Weight / Thymus Weight: unit not given here
Procedure: (§1) At 24 hours after the last exposure, the animals were sacrificed and the effects of exposure on the immune system examined. Immune organs (spleen, thymus, blood, lymph nodes and bone marrow) were recovered and analyzed for effects on organ weight, total cell numbers, immune cell populations (by differentials), and lymphocyte subpopulations (by flow cytometry). Assays were also performed to examine the effects of exposure on immune function. […] Similar effects on immune cell subpopulations were also observed in lymph nodes. In the thymus it appeared that the immature CD4^+ CD8^+ cells were differentially lost due to exposure. […] However, these effects are prevented or ameliorated by treatment of the animals with Substance P.
For each of the immune system organs (spleen, lymph nodes and thymus) the wet weight is determined after removal using a microbalance. After processing of the organs into single cell suspensions the cell numbers and viabilities are determined using trypan blue staining. Histochemical differentials are performed at this time. Cell numbers and viabilities are again determined after centrifugation of the cell suspensions through density gradients to obtain mononuclear cells.

[1] = tested on: lymphocyte subpopulations; assay: Flow cytometric analyses (FACS); type: in vivo, C57B16 mice
Procedure: as §1
One- and two-color FACS analyses are performed using a Becton-Dickinson FACStar Plus flow cytometer. Cells are stained with the indicated monoclonal antibodies according to standard procedures (Harris et al., id). Cells alone and cells reacted with conjugated isotype control, irrelevant mAbs are used as controls. Data is presented as the percentage of cells staining positive for each individual mAb.

[2] = JP-8 1000 mg/m^3 + SP, nSP (1 nM), CP or RP

COc1ccccc1CC(=N)N1C[C@@H]2C(=O)CCC(c3ccccc3)(c3ccccc3)[C@@H]2C1 [RP, reference compound]
BM Cell Number (immune system organs; [2]): 27 | LN Cell Number (immune system organs; [2]): 6.8 | Spleen Cell Number (immune system organs; [2]): 37 | Spleen Weight (immune system organs; [2]): 0.10 | Thymus Cell Number (immune system organs; [2]): 72 | Thymus Weight (immune system organs; [2]): 0.03 | BM CD3 positive cells [1, 2]: 12% | BM CD4 positive cells [1, 2]: 6% | BM CD8 positive cells [1, 2]: 5% | BM CD45 positive cells [1, 2]: 42% | BM MAC1 positive cells [1, 2]: 10% | LN CD3 positive cells [1, 2]: 96% | LN CD4 positive cells [1, 2]: 41% | LN CD8 positive cells [1, 2]: 29% | LN CD45 positive cells [1, 2]: 18% | LN MAC1 positive cells [1, 2]: 1% | PBL CD3 positive cells [1, 2]: 71% | PBL CD4 positive cells [1, 2]: 18% | PBL CD8 positive cells [1, 2]: 10% | PBL CD45 positive cells [1, 2]: 38% | PBL MAC1 positive cells [1, 2]: 9% | Spleen CD3 positive cells [1, 2]: 47% | Spleen CD4 positive cells [1, 2]: 16% | Spleen CD8 positive cells [1, 2]: 5% | Spleen CD45 positive cells [1, 2]: 39% | Spleen MAC1 positive cells [1, 2]: 1% | Thymus CD3 positive cells [1, 2]: 16% | Thymus DN cells [1, 2]: 10% | Thymus DP cells [1, 2]: 70% | Thymus SP4 cells [1, 2]: 12% | Thymus SP8 cells [1, 2]: 8%

nSP: 1 nanomolar substance P
BM Cell Number (immune system organs; [2]): 31 | LN Cell Number (immune system organs; [2]): 10.8 | Spleen Cell Number (immune system organs; [2]): 58 | Spleen Weight (immune system organs; [2]): 0.11 | Thymus Cell Number (immune system organs; [2]): 78 | Thymus Weight (immune system organs; [2]): 0.04 | BM CD3 positive cells [1, 2]: 13% | BM CD4 positive cells [1, 2]: 10% | BM CD8 positive cells [1, 2]: 3% | BM CD45 positive cells [1, 2]: 43% | BM MAC1 positive cells [1, 2]: 16% | LN CD3 positive cells [1, 2]: 95% | LN CD4 positive cells [1, 2]: 42% | LN CD8 positive cells [1, 2]: 25% | LN CD45 positive cells [1, 2]: 23% | LN MAC1 positive cells [1, 2]: 0% | PBL CD3 positive cells [1, 2]: 78% | PBL CD4 positive cells [1, 2]: 25% | PBL CD8 positive cells [1, 2]: 8% | PBL CD45 positive cells [1, 2]: 29% | PBL MAC1 positive cells [1, 2]: 2% | Spleen CD3 positive cells [1, 2]: 60% | Spleen CD4 positive cells [1, 2]: 15% | Spleen CD8 positive cells [1, 2]: 5% | Spleen CD45 positive cells [1, 2]: 41% | Spleen MAC1 positive cells [1, 2]: 1% | Thymus CD3 positive cells [1, 2]: 25% | Thymus DN cells [1, 2]: 7% | Thymus DP cells [1, 2]: 69% | Thymus SP4 cells [1, 2]: 16% | Thymus SP8 cells [1, 2]: 7%

COc1ccccc1CN[C@H]1C2CCN(CC2)[C@H]1C(c1ccccc1)c1ccccc1 [CP, reference compound]
BM Cell Number (immune system organs; [2]): 22 | LN Cell Number (immune system organs; [2]): 7.1 | Spleen Cell Number (immune system organs; [2]): 7 | Spleen Weight (immune system organs; [2]): 0.16 | Thymus Cell Number (immune system organs; [2]): 75 | Thymus Weight (immune system organs; [2]): 0.12 | BM Cell Number (immune system organs; dose 0 (no JP-8) + SP or CP): 29 | LN Cell Number (immune system organs; dose 0 (no JP-8) + SP or CP): 9.8 | Spleen Cell Number (immune system organs; dose 0 (no JP-8) + SP or CP): 16 | Spleen Weight (immune system organs; dose 0 (no JP-8) + SP or CP): 0.12 | Thymus Cell Number (immune system organs; dose 0 (no JP-8) + SP or CP): 50 | Thymus Weight (immune system organs; dose 0 (no JP-8) + SP or CP): 0.12 | BM CD3 positive cells [1, 2]: 14% | BM CD4 positive cells [1, 2]: 7% | BM CD8 positive cells [1, 2]: 3% | BM CD45 positive cells [1, 2]: 41% | BM MAC1 positive cells [1, 2]: 26% | LN CD3 positive cells [1, 2]: 95% | LN CD4 positive cells [1, 2]: 35% | LN CD8 positive cells [1, 2]: 23% | PBL CD3 positive cells [1, 2]: 50% | PBL CD4 positive cells [1, 2]: 20% | PBL CD8 positive cells [1, 2]: 15% | PBL CD45 positive cells [1, 2]: 27% | PBL MAC1 positive cells [1, 2]: 6% | Spleen CD3 positive cells [1, 2]: 34% | Spleen CD4 positive cells [1, 2]: 16% | Spleen CD8 positive cells [1, 2]: 9% | Spleen CD45 positive cells [1, 2]: 26% | Spleen MAC1 positive cells [1, 2]: 10% | Thymus CD3 positive cells [1, 2]: 17% | Thymus DN cells [1, 2]: 12% | Thymus DP cells [1, 2]: 65% | Thymus SP4 cells [1, 2]: 17% | Thymus SP8 cells [1, 2]: 7% | BM CD3 positive cells ([1]; dose 0 (no JP-8) + SP or CP): 16% | BM CD4 positive cells ([1]; dose 0 (no JP-8) + SP or CP): 9% | BM CD8 positive cells ([1]; dose 0 (no JP-8) + SP or CP): 7% | BM CD45 positive cells ([1]; dose 0 (no JP-8) + SP or CP): 27% | BM MAC1 positive cells ([1]; dose 0 (no JP-8) + SP or CP): 33% | LN CD3 positive cells ([1]; dose 0 (no JP-8) + SP or CP): 49% | LN CD4 positive cells ([1]; dose 0 (no JP-8) + SP or CP): 25% | LN CD8 positive cells ([1]; dose 0 (no JP-8) + SP or CP): 12% | LN CD45 positive cells ([1]; dose 0 (no JP-8) + SP or CP): 15% | LN MAC1 positive cells ([1]; dose 0 (no JP-8) + SP or CP): 1% | PBL CD3 positive cells ([1]; dose 0 (no JP-8) + SP or CP): 72% | PBL CD4 positive cells ([1]; dose 0 (no JP-8) + SP or CP): 29% | PBL CD8 positive cells ([1]; dose 0 (no JP-8) + SP or CP): 13% | PBL CD45 positive cells ([1]; dose 0 (no JP-8) + SP or CP): 12% | PBL MAC1 positive cells ([1]; dose 0 (no JP-8) + SP or CP): 7% | Spleen CD3 positive cells ([1]; dose 0 (no JP-8) + SP or CP): 32% | Spleen CD4 positive cells ([1]; dose 0 (no JP-8) + SP or CP): 21% | Spleen CD8 positive cells ([1]; dose 0 (no JP-8) + SP or CP): 7% | Spleen CD45 positive cells ([1]; dose 0 (no JP-8) + SP or CP): 24% | Spleen MAC1 positive cells ([1]; dose 0 (no JP-8) + SP or CP): 3% | Thymus CD3 positive cells ([1]; dose 0 (no JP-8) + SP or CP): 18% | Thymus DN cells ([1]; dose 0 (no JP-8) + SP or CP): 13% | Thymus DP cells ([1]; dose 0 (no JP-8) + SP or CP): 75% | Thymus SP4 cells ([1]; dose 0 (no JP-8) + SP or CP): 12% | Thymus SP8 cells ([1]; dose 0 (no JP-8) + SP or CP): 3%

From patent US5945508A, “Substance P treatment for immunostimulation” (priority 1997, dated 1999)
